Measured values from patent US8937080B2, “Pyrimidine substituted macrocyclic HCV inhibitors” (Medivir AB, priority 2007, dated 2015).
Read-outs that look alike come from different tables or passages of the source.

Experiments:
[1] = rcm bond, 14-membered ring, Hoveyda-Grubbs II, DCE, 16.0 h
[2] = tested on: HCV replicons (wild type NS3-NS5B regions of HCV type 1b) in Huh-7 luc/neo cells; assay: Replicon assay (Huh-Luc cells, luciferase readout); format: cell-based; settings: Hepatitis C virus, Huh-7, 72 h, incubation of three days, luciferase activity
Source text: The compounds of formula (I) were examined for activity in the inhibition of HCV RNA replication in a cellular assay. […] The cellular assay was based on a bicistronic expression construct, as described by Lohmann et al. (1999) Science vol. 285 pp. 110-113 with modifications described by Krieger et al. (2001) Journal of Virology 75: 4614-4624, in a multi-target screening strategy. In essence, the method was as follows.
The assay utilized the stably transfected cell line Huh-7 luc/neo (hereafter referred to as Huh-Luc). This cell line harbors an RNA encoding a bicistronic expression construct comprising the wild type NS3-NS5B regions of HCV type 1b translated from an Internal Ribosome Entry Site (IRES) from encephalomyocarditis virus (EMCV), preceded by a reporter portion (FfL-luciferase), and a selectable marker portion (neo^R, neomycine phosphotransferase). The construct is bordered by 5′ and 3′ NTRs (non-translated regions) from HCV type 1b. Continued culture of the replicon cells in the presence of G418 (neo^R) is dependent on the replication of the HCV RNA. The stably transfected replicon cells that express HCV RNA, which replicates autonomously and to high levels, encoding inter alia luciferase, are used for screening the antiviral compounds.
The replicon cells were plated in 384 well plates in the presence of the test and control compounds which were added in various concentrations. Following an incubation of three days, HCV replication was measured by assaying luciferase activity (using standard luciferase assay substrates and reagents and a Perkin Elmer ViewLux™ ultraHTS microplate imager). Replicon cells in the control cultures have high luciferase expression in the absence of any inhibitor. The inhibitory activity of the compound on luciferase activity was monitored on the Huh-Luc cells, enabling a dose-response curve for each test compound. EC50 values were then calculated, which value represents the amount of the compound required to decrease by 50% the level of detected luciferase activity, or more specifically, the ability of the genetically linked HCV replicon RNA to replicate.

[3] = target: HCV NS3/4A protease complexes (full-length hepatitis C NS3 protease enzyme with NS4A cofactor) (Hepatitis C virus genotype 1a, UniProt P27958); assay: Inhibition assay (enzymatic assay, depsipeptide substrate hydrolysis); format: biochemical; settings: enzyme 1 nM, 25 μM NS4A cofactor, 0.5 μM substrate, 30° C., competitive inhibition model
Procedure: The aim of this in vitro assay is to measure the inhibition of HCV NS3/4A protease complexes by the compounds of the present invention. This assay provides an indication of how effective compounds of the present invention would be in inhibiting HCV NS3/4A proteolytic activity.
The inhibition of full-length hepatitis C NS3 protease enzyme was measured essentially as described in Poliakov, 2002 Prot Expression & Purification 25 363 371. Briefly, the hydrolysis of a depsipeptide substrate, Ac-DED(Edans)EEAbuψ[COO]ASK(Dabcyl)-NH2 (AnaSpec, San José, USA), was measured spectrofluorometrically in the presence of a peptide cofactor, KKGSVVIVGRIVLSGK (Åke Engström, Department of Medical Biochemistry and Microbiology, Uppsala University, Sweden). [Landro, 1997 #Biochem 36 9340-9348]. The enzyme (1 nM) was incubated in 50 mM HEPES, pH 7.5, 10 mM DTT, 40% glycerol, 0.1% n-octyl-D-glucoside, with 25 μM NS4A cofactor and inhibitor at 30° C. for 10 min, whereupon the reaction was initiated by addition of 0.5 μM substrate. Inhibitors were dissolved in DMSO, sonicated for 30 sec. and vortexed. The solutions were stored at −20° C. between measurements.
The final concentration of DMSO in the assay sample was adjusted to 3.3%. The rate of hydrolysis was corrected for inner filter effects according to published procedures.
[Liu, 1999 Analytical Biochemistry 267 331-335]. Ki values were estimated by non-linear regression analysis (GraFit, Erithacus Software, Staines, MX, UK), using a model for competitive inhibition and a fixed value for Km (0.15 μM). A minimum of two replicates was performed for all measurements.

Sequence of HCV NS3/4A protease complexes (full-length hepatitis C NS3 protease enzyme with NS4A cofactor) (P27958 1027-1657, other chains not shown): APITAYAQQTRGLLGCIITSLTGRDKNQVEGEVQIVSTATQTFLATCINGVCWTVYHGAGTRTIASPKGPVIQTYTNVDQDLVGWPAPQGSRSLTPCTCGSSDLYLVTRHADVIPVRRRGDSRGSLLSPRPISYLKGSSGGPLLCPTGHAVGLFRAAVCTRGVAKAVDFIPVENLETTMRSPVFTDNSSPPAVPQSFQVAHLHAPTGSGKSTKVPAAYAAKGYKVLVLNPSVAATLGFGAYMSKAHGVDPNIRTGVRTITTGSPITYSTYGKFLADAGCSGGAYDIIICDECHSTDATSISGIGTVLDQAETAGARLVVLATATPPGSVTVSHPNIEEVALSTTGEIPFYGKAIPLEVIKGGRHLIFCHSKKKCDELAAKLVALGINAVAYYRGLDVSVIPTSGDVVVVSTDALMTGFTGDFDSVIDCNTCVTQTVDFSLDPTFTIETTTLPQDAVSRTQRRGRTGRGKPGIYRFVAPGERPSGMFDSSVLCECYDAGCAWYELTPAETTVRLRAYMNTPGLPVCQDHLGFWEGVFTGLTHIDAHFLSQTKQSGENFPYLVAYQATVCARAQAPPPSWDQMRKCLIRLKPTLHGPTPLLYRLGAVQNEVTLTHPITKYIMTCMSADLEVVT

| SMILES | ring closure, isolated yield ([1]; from C=CCCCCN(C)C(=O)C1CC(Oc2cc(-c3ccccc3)nc(-c3ccccc3)n2)CC1C(=O)NC1(C(=O)OCC)CC1C=C, 1.66 mM) | ring closure, isolated yield ([1]; from C=CCCCCN(C)C(=O)C1CC(Oc2cc(-c3ccccc3)nc(OC)n2)CC1C(=O)NC1(C(=O)OCC)CC1C=C, 1.83 mM) | EC50 [2] | Ki [3] |
| --- | --- | --- | --- | --- |
| CCOC(=O)C12CC1C=CCCCCN(C)C(=O)C1CC(Oc3cc(-c4ccccc4)nc(-c4ccccc4)n3)CC1C(=O)N2 (centres unmarked) | 76% | – | – | – |
| CCOC(=O)C12CC1C=CCCCCN(C)C(=O)C1CC(Oc3cc(-c4ccccc4)nc(OC)n3)CC1C(=O)N2 (centres unmarked) | – | 70% | – | – |
| COc1nc(OC2CC3C(=O)NC4(C(=O)NS(=O)(=O)C5CC5)CC4C=CCCCCN(C)C(=O)N3C2)cc(-c2ccccc2)n1 (centres unmarked) [Example 1, Cyclopropanesulfonic acid [17-(2-methoxy-6-phenyl-pyrimidin-4-yloxy)-13-methyl-2,14-dioxo-3,13,15-triaza-tricyclo[13.3.0.0*4,6*]octadec-7-ene-4-carbonyl]-amide] | – | – | 1000 to 10000 nM | 0.1 to 4.9 nM |
| COc1nc(OC2CC3C(=O)NC4(C(=O)NS(=O)(=O)C5CC5)CC4C=CCCCCCNC(=O)N3C2)cc(-c2ccccc2)n1 (centres unmarked) [Example 2, Cyclopropanesulfonic acid [18-(2-methoxy-6-phenylpyrimidin-4-yloxy)-2,15-dioxo-3,14,16-triaza-tricyclo[14.3.0.0*4,6*]nonadec-7-ene-4-carbonyl]-amide] | – | – | 1000 to 10000 nM | 0.1 to 4.9 nM |
| COc1nc(OC2CC3C(=O)NC4(C(=O)NS(=O)(=O)C5CC5)CC4C=CCCCCN(C)C(=O)C3C2)cc(C(C)(C)C)n1 (centres unmarked) [Example 3, Cyclopropanesulfonic acid [17-(6-tert-butyl-2-methoxypyrimidin-4-yloxy)-13-methyl-2,14-dioxo-3,13-diaza-tricyclo[13.3.0.0*4,6*]octadec-7-ene-4-carbonyl]amide] | – | – | 1000 to 10000 nM | 5 to 99.9 nM |
| COc1nc(O[C@@H]2C[C@H]3C(=O)N[C@]4(C(=O)NS(=O)(=O)C5(C)CC5)C[C@H]4/C=C\CCCCCNC(=O)N3C2)cc(-c2ccccc2)n1 [Example 4, 1-Methyl-cyclopropanesulfonic acid [18-(2-methoxy-6-phenylpyrimidin-4-yloxy)-2,15-dioxo-3,14,16-triaza-tricyclo[14.3.0.0*4,6*]nonadec-7-ene-4-carbonyl]-amide] | – | – | 200 to 990 nM | 0.1 to 4.9 nM |
| COc1nc(O[C@@H]2C[C@H]3C(=O)N[C@]4(C(=O)NS(=O)(=O)C5(C)CC5)C[C@H]4/C=C\CCCCN(C)C(=O)[C@@H]3C2)cc(C(C)(C)C)n1 [Example 5, 1-Methyl-cyclopropanesulfonic acid [17-(6-tert-butyl-2-methoxy-pyrimidin-4-yloxy)-13-methyl-2,14-dioxo-3,13-diaza-tricyclo[13.3.0.0*4,6*]octadec-7-ene-4-carbonyl]-amide] | – | – | > 10000 nM | 100 to 1000 nM |
| COc1cc(OC2CC3C(=O)NC4(C(=O)NS(=O)(=O)C5CC5)CC4C=CCCCCCNC(=O)N3C2)nc(-c2ccccc2)n1 (centres unmarked) [Example 6, Cyclopropanesulfonic acid [18-(6-methoxy-2-phenylpyrimidin-4-yloxy)-2,15-dioxo-3,14,16-triaza-tricyclo[14.3.0.0*4,6*]nonadec-7-ene-4-carbonyl]-amide] | – | – | 0.5 to 199 nM | 0.1 to 4.9 nM |
| COc1cc(OC2CC3C(=O)NC4(C(=O)NS(=O)(=O)C5(C)CC5)CC4C=CCCCCN(C)C(=O)C3C2)nc(-c2ccccc2)n1 (centres unmarked) [Example 7, 1-Methyl-cyclopropanesulfonic acid [17-(6-methoxy-2-phenylpyrimidin-4-yloxy)-13-methyl-2,14-dioxo-3,13-diaza-tricyclo[13.3.0.0*4,6*]octadec-7-ene-4-carbonyl]-amide] | – | – | 0.5 to 199 nM | 0.1 to 4.9 nM |
| COc1cc(O[C@@H]2C[C@H]3C(=O)N[C@]4(C(=O)NS(=O)(=O)c5cccs5)C[C@H]4/C=C\CCCCN(C)C(=O)[C@@H]3C2)nc(-c2ccccc2)n1 [Example 9, Thiophene-2-sulfonic acid [17-(6-methoxy-2-phenylpyrimidin-4-yloxy)-13-methyl-2,14-dioxo-3,13-diaza-tricyclo[13.3.0.0*4,6*]octadec-7-ene-4-carbonyl]-amide] | – | – | 1000 to 10000 nM | – |
| CN1CCCC/C=C\[C@@H]2C[C@@]2(C(=O)NS(=O)(=O)C2CC2)NC(=O)[C@@H]2C[C@@H](Oc3ccnc(N4CCOCC4)n3)C[C@H]2C1=O [Example 11, Cyclopropanesulfonic acid [13-methyl-17-(2-morpholin-4-yl-pyrimidin-4-yloxy)-2,14-dioxo-3,13-diaza-tricyclo[13.3.0.0*4,6*]octadec-7-ene-4-carbonyl]-amide] | – | – | > 10000 nM | 5 to 99.9 nM |
| CC(C)Nc1nccc(O[C@@H]2C[C@H]3C(=O)N[C@]4(C(=O)NS(=O)(=O)C5CC5)C[C@H]4/C=C\CCCCN(C)C(=O)[C@@H]3C2)n1 [Example 12, Cyclopropanesulfonic acid [17-(2-isopropylaminopyrimidin-4-yloxy)-13-methyl-2,14-dioxo-3,13-diaza-tricyclo[13.3.0.0*4,6*]octadec-7-ene-4-carbonyl]-amide] | – | – | > 10000 nM | 5 to 99.9 nM |
| COc1nc(O[C@@H]2C[C@H]3C(=O)N[C@]4(C(=O)NS(=O)(=O)C5(C)CC5)C[C@H]4/C=C\CCCCN(C)C(=O)[C@@H]3C2)cc(-c2ccccc2)n1 [Example 14, 1-Methyl-cyclopropanesulfonic acid [17-(2-methoxy-6-phenyl-pyrimidin-4-yloxy)-13-methyl-2,14-dioxo-3,13-diaza-tricyclo[13.3.0.0*4,6*]octadec-7-ene-4-carbonyl]-amide] | – | – | 200 to 990 nM | 5 to 99.9 nM |
| COc1ccc(-c2cc(OC3CC4C(=O)NC5(C(=O)NS(=O)(=O)C6CC6)CC5C=CCCCCN(C)C(=O)C4C3)nc(OC)n2)cc1 (centres unmarked) [Example 16, Cyclopropanesulfonic acid {17-[2-methoxy-6-(4-methoxy-phenyl)-pyrimidin-4-yloxy]-13-methyl-2,14-dioxo-3,13-diaza-tricyclo[13.3.0.0*4,6*]octadec-7-ene-4-carbonyl}-amide] | – | – | 200 to 990 nM | 0.1 to 4.9 nM |
| CN1CCCCC=CC2CC2(C(=O)NS(=O)(=O)C2CC2)NC(=O)C2CC(Oc3cc(-c4ccccc4)nc(-c4ccccc4)n3)CC2C1=O (centres unmarked) [Example 17, Cyclopropanesulfonic acid [17-(2,6-diphenyl-pyrimidin-4-yloxy)-13-methyl-2,14-dioxo-3,13-diaza-tricyclo[13.3.0.0*4,6*]octadec-7-ene-4-carbonyl]-amide] | – | – | 200 to 990 nM | 0.1 to 4.9 nM |
| COc1cccc(-c2cc(O[C@@H]3C[C@H]4C(=O)N[C@]5(C(=O)NS(=O)(=O)C6CC6)C[C@H]5/C=C\CCCCN(C)C(=O)[C@@H]4C3)nc(OC)n2)c1 [Example 24, Cyclopropanesulfonic acid {17-[2-methoxy-6-(3-methoxy-phenyl)-pyrimidin-4-yloxy]-13-methyl-2,14-dioxo-3,13-diaza-tricyclo[13.3.0.0*4,6*]octadec-7-ene-4-carbonyl}-amide] | – | – | 0.5 to 199 nM | – |
| COc1cccc(-c2cc(O[C@@H]3C[C@H]4C(=O)N[C@]5(C(=O)NS(=O)(=O)C6(C)CC6)C[C@H]5/C=C\CCCCN(C)C(=O)[C@@H]4C3)nc(OC)n2)c1 [Example 25, 1-Methyl-cyclopropanesulfonic acid {17-[2-methoxy-6-(3-methoxy-phenyl)-pyrimidin-4-yloxy]-13-methyl-2,14-dioxo-3,13-diaza-tricyclo[13.3.0.0*4,6*]octadec-7-ene-4-carbonyl}-amide] | – | – | 0.5 to 199 nM | – |
